From patent US6544767B1, “Cathespin O2 protease” (Axys Pharmaceuticals, Inc., priority 1994, dated 2003)
Like-named read-outs stand apart in the source and are kept apart here. Non-standard residues stand in square brackets, D forms with d. Residues, ends and D or L forms follow the SMILES beside them. *: point of attachment. Sta = CC(C)C[C@H](N)[C@@H](O)CC(=O)O; AMC = Cc1cc(=O)oc2cc(N*)ccc12; Isovaleryl = CC(C)CC(=O)*; Cbz = O=C(OCc1ccccc1)*; CHN2 = [N-]=[N+]=C*

Tests used:
[1] = biological target: T1, recombinant human cathepsin O2 (Homo sapiens, UniProt P43235); assay: Inhibitor profile, fluorimetric enzyme assay with Z-FR-MCA; type: biochemical; conditions: for inhibition at 0.05 µM: [inhibitor] 0.05 μM
T1 construct: the mature protein spans from position 115 to 329 (215 amino acids); made in house; host or cells: Sf9 insect cells (baculovirus, pVL1392)
T1 sequence (P43235 115-329): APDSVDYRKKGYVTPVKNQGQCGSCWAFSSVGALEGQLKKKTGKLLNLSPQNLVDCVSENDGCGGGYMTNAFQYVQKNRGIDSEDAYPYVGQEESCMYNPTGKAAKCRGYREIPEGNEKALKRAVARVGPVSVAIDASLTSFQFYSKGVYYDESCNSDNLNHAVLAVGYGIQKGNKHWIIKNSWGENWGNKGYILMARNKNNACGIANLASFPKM
Method: (§1) Human cathepsin O2 was assayed with a fluorogenic substrate Z-FR-MCA (MCA, methyl coumarylamide) in 100 mM sodium acetate buffer, containing 2.5 mM dithioerythreitol and 2.5 mM EDTA. Initial rates of hydrolysis of the MCA-substrate are monitored in 1-cm cuvettes at 25° C. at an excitation wavelength at 380 nm and an emission wavelength at 450 nm. The concentration of Z-FR-MCA is 5 μM under standard conditions.
The inhibition of cathepsin O2 was assayed at a constant substrate (5 μM Z-FR-MCA) and enzyme concentration (1 nM) in the presence of different inhibitor concentrations in the substrate assay buffer. Cathepsin O2 was preincubated with the inhibitors for 10 min and the reaction was started with substrate. The residual activity was monitored and percent inhibition was calculated from the uninhibited rate.
The efficacy of protease class specific inhibitors to inhibit cathepsin O2 was determined by adding the inhibitor to the purified enzyme in a fluorimetric enzyme assay (described above).

[2] = biological target: T1, recombinant human cathepsin O2; assay: Hydrolysis of synthetic MCA substrates (kinetic parameters); type: biochemical
Method: as §1
The kinetic constants Vmax and Km were obtained by non-linear regression analysis using the program Enzfitter (Leatherbarrow, Enzfitter, Elsevier Biosoft, Cambridge, United Kingdom (1987).
The substrate specificity towards synthetic substrates was determined using the above described substrate assay.
For the calculation of the kinetic parameters kcat and Km the initial rates were obtained typically at 9-11 different substrate concentrations, and the results are fitted to equation (1). The enzyme concentration is determined by active site titration with E-64 (Kinder et al., Biochem. J. 201:367-372 (1982)). [formula]

[3] = from literature; cited from earlier work
pH stability at 37° C. = type: physicochemical
Method: The residual activity was measured in time intervals using the above described fluorimetric substrate assay. The pH stability of cathepsins O2, S and L was studied at three different pH values. Recombinant human cathepsins O2, S and L were incubated at 37° C. in 100 mM sodium acetate buffer, pH 5.5, in 100 mM potassium phosphate buffer, pH 6.5 and in 100 mM Tris/HCl, pH 7.5 containing 5 mM dithiothreitol and 2.5 mM EDTA. Incubating for 0.5, 1, 2 and 4 hours, the activity remaining was determined using 5 μM Z-FR-MCA for cathepsin O2 (100 mM potassium phosphate buffer, pH 6.5) and cathepsin L (100 mM sodium acetate buffer, pH 5.5) and 5 μM Z-VVR-MCA for cathepsin S (100 mM potassium phosphate buffer, pH 6.5).

[4] = tested on: denatured soluble calf skin collagen; assay: Gelatinase activity, SDS-PAGE; type: biochemical
Method: FIGS. 9A and 9B depict SDS PAGE of type I collagen (soluble calf skin collagen) after digestion with recombinant human cathepsin O2 and L and bovine trypsin. FIG. 9A: Collagenase activity: Digestion of soluble calf skin collagen at 28° C. and at pH 4.0, 5.0, 5.5, 6.0, 6.5, 7.0 by human cathepsins O2, S and L (each 50 nM) for 12 hours. The reaction was stopped by addition of 10 μM E-64. Untreated soluble collagen was used as standard (S). FIG. 9B: Gelatinase activity: Digestion of denatured soluble calf skin collagen (10 min heated at 70° C.) at 28° C. and at pH 4.0, 5.0, 5.5, 6.0, 6.5, 7.0 by human cathepsin O2 (0.1 nM), cathepsin L (0.2 nM) and human cathepsin S (1 nM). Molecular mass standards are indicated in the left lane.
Soluble calf skin Type I collagen was diluted to 0.4 mg/ml into 100 mM-sodium acetate buffer, pH 4.5, 5.0, 5.5, in 100 mM-potassium phosphate buffer, pH 6.0, 6.5 and 100 mM-Tris/HCl, pH 7.0 containing 2 mM-dithiotreitol/2 mM-EDTA. Human cathepsins O2, S and L and bovine trypsin (Sigma) were incubated at concentrations of 100 nM enzyme concentration for 10 hours at 28° C. To measure the gelatinase activity of cathepsins O2 and S, Type I collagen was heated for 10 min at 70° C. prior to incubation with the proteases. In the presence of 1 nM proteases the reaction mix was incubated for 30 min at 28° C. […]

[^3H] elastin = Elastin degradation assay; type: biochemical
Method: Elastin (2 mg) was incubated in I ml buffer containing 2.5 mM dithiothreitol, 2.5 mM EDTA and 0.05% Triton X-100 for the cathepsin O2, S and L assays. Aliquots were withdrawn after 10, 20, 30, 50, 90, 120 and 180 min, centrifuged for 1 min at 14,000×g and counted in a 24-well plate containing scintillation fluid with Liquid Scintillation counter (1450 Microbeta Plus, Wallac/Pharmacia). Concentrations of human cathepsins O2, S and L and bovine elastase in the elastin degradation assay were 65 nM, 28 nM, 80 nM and 80 nM, respectively. To determine the pH effect on protease activity the digests were carried out at pH 4.5 and 5.5 (100 mM sodium acetate, 2.5 mM each dithiothreitol and EDTA, 0.05% Triton X-100), and at pH 7.0 (100 mM Tris/HCl, 2.5 mM each of dithiothreitol and EDTA, 0.05% Triton X-100). Pancreatic bovine elastase (Boehringer, Mannheim, Ind.) was assayed under the same conditions except that neither dithiothreitol nor EDTA was added to the incubation mixture.

pH activity profile = type: biochemical; conditions: calculated from (pK1 + pK2)/2
Method: Initial rates of substrate hydrolysis were monitored as described above. The pH activity profile of human cathepsin O2 was obtained at 1 μM substrate (Z-FR-MCA) concentration ([S]<<Km where the initial rate vo is directly proportional to the kcat/Km value). The following buffers were used for the pH activity profile: 100 mM sodium citrate (pH 2.8-5.6) and 100 mM sodium phosphate (pH 5.8-8.0). All buffers contained 1 mM EDTA and 0.4 M NaCl to minimize the variation in ionic strength. A three protonation model (Khouri et al., Biochem. 30:8929-8936 (1991)) was used for least square regression analysis of the pH activity data. The data were fitted to the following equation.
(kcat/Km)obs=(kcat/Km)/([H^+]/K1+1+K2/[H^+])

Cl.NCCc1ccc(S(=O)(=O)F)cc1 [Befablock]
% inhibition ([1]; [inhibitor] 0.2 mM): 0%

O=c1oc(Cl)c(Cl)c2ccccc12 [DCI]
% inhibition ([1]; [inhibitor] 0.1 mM): 0%

CC(C)C[C@H](NC(=O)[C@H]1O[C@@H]1C(=O)O)C(=O)NCCCCN=C(N)N [E-64]
% inhibition ([1]; [inhibitor] 0.1 μM): 100% | inhibition of enzyme activity ([1]; concentrations above 0.1 μM): completely inhibit

O=C(O)CN(CCN(CC(=O)O)CC(=O)O)CC(=O)O [EDTA]
% inhibition ([1]; [inhibitor] 4 mM): 0% | effect on the activity of cathepsin O2 ([1]; concentration of 4 mM): No effect | inhibition of cathepsin O2 ([1]; higher concentrations (>5 mM)): partial non-specific inhibition

O=S(=O)(F)Cc1ccccc1 [PMSF]
% inhibition ([1]; [inhibitor] 1 mM): 0%

C[C@H](NC(=O)[C@H](Cc1ccccc1)NC(=O)OCc1ccccc1)C(=O)C=[N+]=[N-] [Z-FA-CHN2]
% inhibition ([1]; [inhibitor] 0.1 μM): 100%

[N-]=[N+]=CC(=O)[C@H](Cc1ccccc1)NC(=O)[C@H](Cc1ccccc1)NC(=O)OCc1ccccc1 [Z-FF-CHN2] (Cbz-Phe-Phe-CHN2)
% inhibition ([1]; [inhibitor] 0.1 μM): 90%

Cc1cc(=O)oc2cc(NC(=O)C(CCCN=C(N)N)NC(=O)C(Cc3ccccc3)NC(=O)OCc3ccccc3)ccc12 (stereo not drawn) [Z-FR-MCA] (Cbz-Phe-Arg-{AMC}; configuration not given here)
Km [2]: 7.5 ± 3.4 µM | kcat [2]: 0.90 ± 0.20 s⁻¹

Cc1cc(=O)oc2cc(NC(=O)[C@H](CCCN=C(N)N)NC(=O)[C@H](CC(C)C)NC(=O)OCc3ccccc3)ccc12 [Z-LR-MCA]
Km [2]: 3.8 ± 0.8 µM | kcat [2]: 0.98 ± 0.39 s⁻¹

Cc1cc(=O)oc2cc(NC(=O)[C@H](CCCN=C(N)N)NC(=O)[C@H](CCCN=C(N)N)NC(=O)OCc3ccccc3)ccc12 [Z-RR-MCA] (Cbz-Arg-Arg-{AMC})
Km [2]: 23 ± 4 µM | kcat [2]: 0.0005 ± 0.0002 s⁻¹ | substrate quality [2]: very poor substrate

CCCC[C@@H](C=O)NC(=O)[C@H](CC(C)C)NC(=O)OCc1ccccc1 [calpeptin]
inhibition at 0.1 µM ([1]; [inhibitor] 0.1 μM): 100%

CC(C)C[C@H](NC(=O)[C@@H](NC(=O)N[C@@H](Cc1ccccc1)C(=O)O)[C@@H]1CCN=C(N)N1)C(=O)N[C@H](C=O)Cc1ccccc1 [chymostatin]
inhibition at 0.05 µM [1]: 64%

O=C(O)CI [iodo acetate]
% inhibition ([1]; [inhibitor] 50 μM): 60%

CC(=O)N[C@@H](CC(C)C)C(=O)N[C@@H](CC(C)C)C(=O)N[C@H](C=O)CCCNC(=N)N [leupeptin]
inhibition at 0.05 µM [1]: 85%

CC(C)CC(=O)N[C@H](C(=O)N[C@H](C(=O)N[C@@H](CC(C)C)[C@@H](O)CC(=O)N[C@@H](C)C(=O)N[C@@H](CC(C)C)[C@@H](O)CC(=O)O)C(C)C)C(C)C [pepstatin] (Isovaleryl-VV[Sta]A[Sta]-OH)
inhibition at 0.1 µM ([1]; [inhibitor] 0.1 μM): 0%

Cbz-Val-Arg-{AMC}
Km [2]: 13.1 ± 5.6 µM | kcat [2]: 1.06 ± 0.16 s⁻¹

Cbz-Val-Val-Arg-{AMC}
Km [2]: 18.5 ± 1.5 µM | kcat [2]: 0.01 ± 0.004 s⁻¹

Z-LLR-MCA
Km [2]: 0.4 ± 0.1 µM | kcat [2]: 0.02 ± 0.008 s⁻¹ | Km ([2]; text value): 0.4 µM

cathepsin L: recombinant human cathepsin L provided by Dr. Mort [reference compound]
pK1 of pH activity profile [3]: 4.22 ± 0.28 | pK1′ of pH activity profile [3]: 3.33 ± 0.14 | pK2 of pH activity profile [3]: 6.95 ± 0.09 | Residual activity (%) (pH stability at 37° C.; pH 5.5, 37° C., 0.5 hr): 87% | Residual activity (%) (pH stability at 37° C.; pH 5.5, 37° C., 1 hr): 78% | Residual activity (%) (pH stability at 37° C.; pH 5.5, 37° C., 2 hr): 71% | Residual activity (%) (pH stability at 37° C.; pH 5.5, 37° C., 4 hr): 51% | Residual activity (%) (pH stability at 37° C.; pH 6.5, 37° C., 0.5 hr): 12% | Residual activity (%) (pH stability at 37° C.; pH 6.5, 37° C., 2 hr): 0% | Residual activity (%) (pH stability at 37° C.; pH 6.5, 37° C., 4 hr): 0% | Residual activity (%) (pH stability at 37° C.; pH 7.5, 37° C., 0.5 hr): 0% | Residual activity (%) (pH stability at 37° C.; pH 7.5, 37° C., 1 hr): 0% | Residual activity (%) (pH stability at 37° C.; pH 7.5, 37° C., 2 hr): 0% | Residual activity (%) (pH stability at 37° C.; pH 7.5, 37° C., 4 hr): 0% | pH range of gelatinase activity [4]: 4.5-5.5 | elastinolytic activity ([^3H] elastin; pH 4.5): 18 mg/min/μmol enzyme | elastinolytic activity ([^3H] elastin; pH 5.5): 32 mg/min/μmol enzyme | elastinolytic activity ([^3H] elastin; pH 7.0): 0 mg/min/μmol enzyme | pH optimum (pH activity profile): 5.6
